Reference: ChEMBL document CHEMBL5528070, “Design and Synthesis of Dual-Target Inhibitors Targeting Androgen Receptors and Glucocorticoid Receptors to Overcome Antiandrogen Resistance in Castration-Resistant Prostate Cancer” (J Med Chem, 2024)
One block for each molecule: values may come before it.

Key:
Androgen receptor [1] = target: T1, Androgen receptor (Homo sapiens, UniProt P10275)
T1 sequence (P10275 whole entry): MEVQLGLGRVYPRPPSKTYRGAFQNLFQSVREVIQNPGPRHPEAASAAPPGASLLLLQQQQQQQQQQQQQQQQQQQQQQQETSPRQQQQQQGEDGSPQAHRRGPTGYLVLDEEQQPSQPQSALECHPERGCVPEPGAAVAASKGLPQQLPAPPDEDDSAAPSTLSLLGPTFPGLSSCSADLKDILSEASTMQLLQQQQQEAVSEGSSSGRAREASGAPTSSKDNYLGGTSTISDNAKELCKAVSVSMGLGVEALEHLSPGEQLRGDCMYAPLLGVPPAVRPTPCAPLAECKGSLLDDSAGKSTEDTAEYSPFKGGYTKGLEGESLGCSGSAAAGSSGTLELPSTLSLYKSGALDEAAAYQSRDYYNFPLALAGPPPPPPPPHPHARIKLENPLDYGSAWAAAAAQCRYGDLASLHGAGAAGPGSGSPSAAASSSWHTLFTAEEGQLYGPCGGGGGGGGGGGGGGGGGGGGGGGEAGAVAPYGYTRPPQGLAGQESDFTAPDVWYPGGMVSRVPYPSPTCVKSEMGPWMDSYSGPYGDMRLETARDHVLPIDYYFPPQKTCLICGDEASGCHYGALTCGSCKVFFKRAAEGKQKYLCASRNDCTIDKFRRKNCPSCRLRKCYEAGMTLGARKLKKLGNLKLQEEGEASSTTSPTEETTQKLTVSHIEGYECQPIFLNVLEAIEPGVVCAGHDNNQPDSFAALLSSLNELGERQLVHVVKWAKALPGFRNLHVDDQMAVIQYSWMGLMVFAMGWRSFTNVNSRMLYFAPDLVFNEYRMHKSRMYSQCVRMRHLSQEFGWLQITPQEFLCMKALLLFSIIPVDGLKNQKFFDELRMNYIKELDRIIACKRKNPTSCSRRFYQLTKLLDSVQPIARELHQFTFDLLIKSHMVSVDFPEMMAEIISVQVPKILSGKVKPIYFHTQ

Glucocorticoid receptor [2] = target: T2, Glucocorticoid receptor (Homo sapiens, UniProt P04150)
T2 sequence (P04150 whole entry): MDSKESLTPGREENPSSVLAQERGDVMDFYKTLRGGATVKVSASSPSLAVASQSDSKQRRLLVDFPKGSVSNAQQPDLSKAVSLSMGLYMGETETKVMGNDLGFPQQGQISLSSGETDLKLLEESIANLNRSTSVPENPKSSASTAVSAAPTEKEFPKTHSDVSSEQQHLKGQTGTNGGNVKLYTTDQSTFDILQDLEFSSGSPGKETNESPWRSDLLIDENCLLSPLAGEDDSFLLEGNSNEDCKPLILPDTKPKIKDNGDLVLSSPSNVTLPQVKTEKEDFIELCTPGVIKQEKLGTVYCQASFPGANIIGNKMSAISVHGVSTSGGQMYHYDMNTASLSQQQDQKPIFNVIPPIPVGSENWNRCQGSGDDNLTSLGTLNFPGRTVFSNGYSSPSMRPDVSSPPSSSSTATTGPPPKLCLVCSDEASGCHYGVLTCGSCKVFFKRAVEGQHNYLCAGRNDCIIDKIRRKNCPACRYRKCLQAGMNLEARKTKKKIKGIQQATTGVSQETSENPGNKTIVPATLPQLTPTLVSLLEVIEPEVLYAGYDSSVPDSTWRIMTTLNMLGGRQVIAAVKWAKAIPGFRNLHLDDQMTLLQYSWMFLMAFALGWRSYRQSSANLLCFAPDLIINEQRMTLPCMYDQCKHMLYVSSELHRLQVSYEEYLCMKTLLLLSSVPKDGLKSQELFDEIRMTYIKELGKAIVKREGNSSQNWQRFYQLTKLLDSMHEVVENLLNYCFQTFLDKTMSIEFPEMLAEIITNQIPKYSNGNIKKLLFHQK
Description: (§1) Inhibition of glucocorticoid receptor transcription in human PC-3 cells cotransfected with MMTV-luc and renilla plasmid at incubated for 24 hrs by Dual luciferase assay

Androgen receptor [3] = target: T1, Androgen receptor; assay: Antagonist activity at androgen receptor in human LNCaP cells incubated for 24 hrs by luminescence based firefly luciferase assay
LNCaP = assay: Antiproliferative activity against human LNCaP cells assessed as reduction in cell viability measured after 72 hrs by CCK-8 method
LNCaP C4-2 = assay: Antiproliferative activity against human C4-2 cells assessed as reduction in cell viability measured after 72 hrs by CCK-8 method; conditions: LNCaP C4-2, 72 h
DU-145 = assay: Antiproliferative activity against human DU-145 cells assessed as reduction in cell viability measured after 72 hrs by CCK-8 method; conditions: DU-145, 72 h
PC-3 = assay: Antiproliferative activity against human PC-3 cells assessed as reduction in cell viability measured after 72 hrs by CCK-8 method; conditions: PC-3, 72 h
[4] = Antiproliferative activity against African green monkey COS-7 cells assessed as reduction in cell viability measured after 72 hrs by CCK-8 method; conditions: chlorocebus aethiops
CWR22R = assay: Antiproliferative activity against human 22Rv1 cells assessed as reduction in cell viability measured after 72 hrs by CCK-8 method; conditions: 22Rv1, 72 h
Glucocorticoid receptor [5] = target: T2, Glucocorticoid receptor; conditions: pc-3
Description: as §1

SMILES: CCOC(=O)c1ccc(NC(=O)c2ccc(S(=O)(=O)Nc3ccc(C)cc3)cc2)s1
IC50 (Androgen receptor [1]): 0.12 µM

SMILES: CCOC(=O)c1ccc(NC(=O)c2cccc(S(=O)(=O)Nc3ccc4ccccc4c3)c2)s1
IC50 (Glucocorticoid receptor [2]): > 5 µM

SMILES: CCc1cccc(NS(=O)(=O)c2cc3c4c(c2)CCC(=O)N4CCC3)c1
IC50 (Androgen receptor [3]): 0.394 µM

SMILES: CC(O)c1cc(C(=O)N[C@@H](C)Cn2ccc(-c3ccc(C#N)c(Cl)c3)n2)n[nH]1 (stereo not given in full) [DAROLUTAMIDE]
CC50 (LNCaP): 7.04 µM | CC50 (LNCaP C4-2): 18.8 µM | CC50 (DU-145): > 50 µM | CC50 (PC-3): > 50 µM | CC50 at 72 h [4]: > 50 µM | CC50 (CWR22R): > 50 µM

SMILES: CNC(=O)c1ccc(N2C(=S)N(c3cnc(C#N)c(C(F)(F)F)c3)C(=O)C23CCC3)cc1F [APALUTAMIDE]
CC50 (LNCaP): 9.72 µM | CC50 (LNCaP C4-2): 41.7 µM | CC50 (DU-145): > 50 µM | CC50 (PC-3): > 50 µM | CC50 at 72 h [4]: > 50 µM | CC50 (CWR22R): > 50 µM

SMILES: CNC(=O)c1ccc(N2C(=S)N(c3ccc(C#N)c(C(F)(F)F)c3)C(=O)C2(C)C)cc1F [ENZALUTAMIDE]
IC50 (Glucocorticoid receptor [5]): Not Active

Second part, the molecule after the results:

IC50 (Androgen receptor [1]): 1.7 µM
SMILES: CCOC(=O)c1ccc(NC(=O)c2cccc(S(=O)(=O)N3CCCc4ccccc43)c2)s1

IC50 (Androgen receptor [1]): 0.12 µM
SMILES: O=C(Nc1ccc(C(=O)NC23C[C@H]4C[C@H](C2)C[C@@H](C3)C4)s1)c1cccc(S(=O)(=O)N2CCCc3ccccc32)c1

IC50 (Androgen receptor [1]): > 5 µM
SMILES: Cc1ccc(NC(=O)c2ccc(NC(=O)c3ccc(S(=O)(=O)N4CCCc5ccccc54)cc3)s2)cc1

IC50 (Androgen receptor [1]): 0.2 µM
SMILES: O=C(Nc1ccc(C(=O)NC2CC2)s1)c1cccc(S(=O)(=O)N2CCCc3ccccc32)c1
